From patent US20120122860A1, “SOLID FORMS OF SULFONAMIDES AND AMINO ACIDS” (Plexxikon, Inc., priority 2009, published 2012)

Legend:
B-Raf = B-Raf (Homo sapiens, UniProt P15056); test: Kinase activity assay, B-Raf; assay type: biochemical; conditions: read-out: activity toward kinase B-Raf, IC50
B-Raf V600E = B-Raf V600E (Homo sapiens, UniProt P15056, V600E); test: Kinase activity assay, B-Raf V600E; assay type: biochemical; conditions: read-out: activity toward kinase B-Raf V600E, IC50
A-Raf = target: T1, A-Raf (Homo sapiens, UniProt P10398); test: Kinase activity assay, A-Raf
T1 sequence (P10398 1-606): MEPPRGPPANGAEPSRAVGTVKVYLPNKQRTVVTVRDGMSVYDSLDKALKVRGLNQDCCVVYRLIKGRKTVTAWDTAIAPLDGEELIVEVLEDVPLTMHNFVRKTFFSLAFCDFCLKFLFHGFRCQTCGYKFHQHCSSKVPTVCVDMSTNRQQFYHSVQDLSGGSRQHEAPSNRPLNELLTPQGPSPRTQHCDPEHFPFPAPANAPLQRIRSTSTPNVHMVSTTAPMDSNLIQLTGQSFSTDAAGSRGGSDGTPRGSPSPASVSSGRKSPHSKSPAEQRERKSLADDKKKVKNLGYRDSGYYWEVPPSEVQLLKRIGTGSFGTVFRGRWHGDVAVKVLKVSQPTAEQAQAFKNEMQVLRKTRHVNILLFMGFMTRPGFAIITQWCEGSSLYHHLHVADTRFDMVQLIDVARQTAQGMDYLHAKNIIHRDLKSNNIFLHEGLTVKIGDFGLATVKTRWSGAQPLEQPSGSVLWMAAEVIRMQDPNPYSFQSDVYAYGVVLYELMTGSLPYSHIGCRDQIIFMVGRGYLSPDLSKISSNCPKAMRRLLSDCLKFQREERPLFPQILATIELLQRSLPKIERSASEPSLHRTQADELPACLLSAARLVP

C-Raf = C-Raf (Homo sapiens, UniProt P04049); test: Kinase activity assay, C-Raf
Src = Src (Homo sapiens, UniProt P12931); test: Kinase activity assay, Src
Kdr = Kdr (Homo sapiens, UniProt P35968); test: Kinase activity assay, Kdr
Kit = Kit (Homo sapiens, UniProt P10721); test: Kinase activity assay, Kit
Kit, sequence (P10721 26-976): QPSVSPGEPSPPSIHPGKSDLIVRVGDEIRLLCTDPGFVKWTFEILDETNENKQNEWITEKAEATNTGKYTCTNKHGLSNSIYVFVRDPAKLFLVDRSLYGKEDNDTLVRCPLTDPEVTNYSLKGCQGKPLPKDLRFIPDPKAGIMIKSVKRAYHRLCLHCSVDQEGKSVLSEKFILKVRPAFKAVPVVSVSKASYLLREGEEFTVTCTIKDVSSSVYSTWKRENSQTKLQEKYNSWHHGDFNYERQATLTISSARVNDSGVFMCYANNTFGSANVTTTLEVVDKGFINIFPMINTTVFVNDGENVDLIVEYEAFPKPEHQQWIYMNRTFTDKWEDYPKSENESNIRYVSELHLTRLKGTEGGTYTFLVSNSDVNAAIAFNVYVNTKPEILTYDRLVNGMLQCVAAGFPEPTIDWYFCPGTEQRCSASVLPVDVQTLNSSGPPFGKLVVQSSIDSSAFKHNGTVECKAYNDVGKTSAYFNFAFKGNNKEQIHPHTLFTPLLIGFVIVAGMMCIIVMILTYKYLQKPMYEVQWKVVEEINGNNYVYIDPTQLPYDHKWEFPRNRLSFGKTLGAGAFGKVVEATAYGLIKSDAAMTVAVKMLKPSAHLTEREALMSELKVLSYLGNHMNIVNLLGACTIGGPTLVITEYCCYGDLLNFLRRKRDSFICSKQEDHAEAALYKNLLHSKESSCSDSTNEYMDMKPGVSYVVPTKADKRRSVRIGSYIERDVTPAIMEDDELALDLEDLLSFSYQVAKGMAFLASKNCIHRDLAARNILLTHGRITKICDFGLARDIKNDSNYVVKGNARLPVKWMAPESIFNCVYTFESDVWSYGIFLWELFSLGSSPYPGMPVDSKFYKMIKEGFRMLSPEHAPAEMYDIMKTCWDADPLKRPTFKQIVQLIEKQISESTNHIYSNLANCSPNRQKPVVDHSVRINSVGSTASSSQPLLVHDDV

B-Raf, sequence (P15056 whole entry): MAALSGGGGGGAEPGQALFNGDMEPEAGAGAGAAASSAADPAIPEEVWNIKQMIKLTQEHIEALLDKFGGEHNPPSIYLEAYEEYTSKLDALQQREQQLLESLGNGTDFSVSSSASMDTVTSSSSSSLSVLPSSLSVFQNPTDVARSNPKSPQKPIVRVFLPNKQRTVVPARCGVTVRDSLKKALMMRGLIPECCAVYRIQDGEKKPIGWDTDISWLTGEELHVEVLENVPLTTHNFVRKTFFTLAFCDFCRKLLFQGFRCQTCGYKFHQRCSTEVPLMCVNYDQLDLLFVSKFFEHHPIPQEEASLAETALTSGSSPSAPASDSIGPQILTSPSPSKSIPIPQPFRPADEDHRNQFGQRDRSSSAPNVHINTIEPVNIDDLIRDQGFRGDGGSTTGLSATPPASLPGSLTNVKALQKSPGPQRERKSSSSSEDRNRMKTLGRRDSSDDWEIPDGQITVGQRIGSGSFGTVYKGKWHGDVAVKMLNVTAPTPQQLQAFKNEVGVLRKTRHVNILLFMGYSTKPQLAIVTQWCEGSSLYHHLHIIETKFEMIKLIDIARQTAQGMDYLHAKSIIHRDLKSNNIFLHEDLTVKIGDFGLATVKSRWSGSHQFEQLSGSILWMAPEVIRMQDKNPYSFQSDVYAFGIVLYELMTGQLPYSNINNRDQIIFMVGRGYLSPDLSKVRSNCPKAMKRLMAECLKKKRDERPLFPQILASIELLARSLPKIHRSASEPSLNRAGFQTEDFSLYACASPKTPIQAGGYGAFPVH
Src, sequence (P12931 whole entry): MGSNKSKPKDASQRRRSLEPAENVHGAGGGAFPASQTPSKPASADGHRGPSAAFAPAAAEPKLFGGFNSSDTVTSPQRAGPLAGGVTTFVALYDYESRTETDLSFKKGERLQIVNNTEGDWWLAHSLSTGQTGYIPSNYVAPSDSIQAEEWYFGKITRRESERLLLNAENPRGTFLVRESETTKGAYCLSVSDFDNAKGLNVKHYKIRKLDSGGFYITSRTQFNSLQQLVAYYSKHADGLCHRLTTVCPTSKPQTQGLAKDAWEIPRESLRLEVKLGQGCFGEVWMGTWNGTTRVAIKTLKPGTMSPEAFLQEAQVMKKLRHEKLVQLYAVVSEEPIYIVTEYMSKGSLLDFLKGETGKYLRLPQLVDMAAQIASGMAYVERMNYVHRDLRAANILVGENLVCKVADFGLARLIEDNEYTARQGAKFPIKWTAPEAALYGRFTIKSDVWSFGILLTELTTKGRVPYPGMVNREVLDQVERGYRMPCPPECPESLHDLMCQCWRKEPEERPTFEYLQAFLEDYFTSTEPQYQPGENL
C-Raf, sequence (P04049 whole entry): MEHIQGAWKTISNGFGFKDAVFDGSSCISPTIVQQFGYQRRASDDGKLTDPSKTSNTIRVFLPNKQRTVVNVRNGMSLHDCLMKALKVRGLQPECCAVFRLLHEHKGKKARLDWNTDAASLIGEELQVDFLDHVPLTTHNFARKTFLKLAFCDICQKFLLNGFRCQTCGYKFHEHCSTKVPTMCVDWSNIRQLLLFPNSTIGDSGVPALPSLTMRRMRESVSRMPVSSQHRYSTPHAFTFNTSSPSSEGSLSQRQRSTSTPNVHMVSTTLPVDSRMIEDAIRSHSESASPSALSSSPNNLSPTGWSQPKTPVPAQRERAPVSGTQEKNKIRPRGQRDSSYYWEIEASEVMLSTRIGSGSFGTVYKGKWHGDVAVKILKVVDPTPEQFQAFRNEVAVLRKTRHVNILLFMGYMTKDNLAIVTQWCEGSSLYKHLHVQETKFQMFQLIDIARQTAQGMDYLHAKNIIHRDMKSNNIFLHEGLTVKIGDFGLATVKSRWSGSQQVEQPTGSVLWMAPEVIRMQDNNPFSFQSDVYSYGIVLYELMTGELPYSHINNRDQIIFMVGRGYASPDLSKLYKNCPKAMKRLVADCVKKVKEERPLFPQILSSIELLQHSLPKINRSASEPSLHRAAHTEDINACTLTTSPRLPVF
B-Raf V600E, sequence (P15056 whole entry V600E): as the sequence (P15056 whole entry) above, with V600E counted along it
Kdr, sequence (P35968 20-1356): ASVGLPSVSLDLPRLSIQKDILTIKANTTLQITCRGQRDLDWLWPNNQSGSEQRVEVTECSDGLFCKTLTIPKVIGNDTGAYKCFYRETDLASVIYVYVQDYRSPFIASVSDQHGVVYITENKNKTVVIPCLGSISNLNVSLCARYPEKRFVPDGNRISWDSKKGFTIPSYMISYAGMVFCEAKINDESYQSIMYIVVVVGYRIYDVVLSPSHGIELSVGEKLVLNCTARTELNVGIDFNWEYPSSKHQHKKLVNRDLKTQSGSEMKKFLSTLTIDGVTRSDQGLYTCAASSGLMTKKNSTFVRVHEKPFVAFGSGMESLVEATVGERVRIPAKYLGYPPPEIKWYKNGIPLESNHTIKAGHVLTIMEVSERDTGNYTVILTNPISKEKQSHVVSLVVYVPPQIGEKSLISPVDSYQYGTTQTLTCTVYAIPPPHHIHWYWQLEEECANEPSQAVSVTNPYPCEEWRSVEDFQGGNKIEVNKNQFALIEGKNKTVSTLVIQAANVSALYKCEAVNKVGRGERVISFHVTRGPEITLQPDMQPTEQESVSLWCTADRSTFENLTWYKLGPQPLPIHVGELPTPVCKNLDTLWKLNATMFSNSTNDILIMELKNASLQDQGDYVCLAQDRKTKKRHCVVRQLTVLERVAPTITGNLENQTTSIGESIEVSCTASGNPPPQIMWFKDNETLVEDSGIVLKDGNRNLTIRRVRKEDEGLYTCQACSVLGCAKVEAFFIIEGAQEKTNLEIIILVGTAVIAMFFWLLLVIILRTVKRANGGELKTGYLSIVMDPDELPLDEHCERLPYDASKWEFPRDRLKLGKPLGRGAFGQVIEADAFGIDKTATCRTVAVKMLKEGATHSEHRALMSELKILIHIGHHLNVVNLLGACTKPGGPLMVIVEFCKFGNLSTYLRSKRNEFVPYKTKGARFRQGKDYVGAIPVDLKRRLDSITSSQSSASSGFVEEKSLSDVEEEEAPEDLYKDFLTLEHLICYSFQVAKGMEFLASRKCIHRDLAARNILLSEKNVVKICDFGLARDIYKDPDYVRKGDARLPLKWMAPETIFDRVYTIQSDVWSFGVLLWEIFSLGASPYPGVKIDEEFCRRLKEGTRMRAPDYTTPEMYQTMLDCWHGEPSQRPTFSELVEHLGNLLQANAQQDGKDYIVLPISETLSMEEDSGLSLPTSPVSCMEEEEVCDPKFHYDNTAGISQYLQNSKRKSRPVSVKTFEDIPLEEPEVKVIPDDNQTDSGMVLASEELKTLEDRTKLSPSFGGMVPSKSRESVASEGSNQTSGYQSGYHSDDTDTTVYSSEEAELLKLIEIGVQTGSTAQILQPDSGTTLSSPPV

IC50 (B-Raf) [µM]	IC50 (B-Raf V600E) [µM]	IC50 (A-Raf) [µM]	IC50 (C-Raf) [µM]	IC50 (Src) [µM]	IC50 (Kdr) [µM]	IC50 (Kit) [µM]	SMILES
≤ 10	≤ 10	≤ 10	≤ 10	≤ 10	–	–	N#Cc1cnc2[nH]cc(C(=O)c3cccc(NS(=O)(=O)c4ccccc4)c3F)c2c1 [P-2056, N-[3-(5-Cyano-1H-pyrrolo[2,3-b]pyridine-3-carbonyl)-2-fluoro-phenyl]-benzenesulfonamide]
≤ 10	≤ 10	≤ 10	≤ 10	≤ 10	–	–	O=C(c1c(F)ccc(NS(=O)(=O)N2CCOCC2)c1F)c1c[nH]c2nccc(Cl)c12 [P-2397, Morpholine-4-sulfonic acid [3-(4-chloro-1H-pyrrolo[2,3-b]pyridine-3-carbonyl)-2,4-difluoro-phenyl]-amide]
≤ 10	≤ 10	≤ 10	≤ 10	–	≤ 10	–	N#Cc1ccnc2[nH]cc(C(=O)c3c(F)ccc(NS(=O)(=O)C4CCC4)c3F)c12 [P-2370, Cyclobutanesulfonic acid [3-(4-cyano-1H-pyrrolo[2,3-b]pyridine-3-carbonyl)-2,4-difluoro-phenyl]-amide]
≤ 10	≤ 10	≤ 10	≤ 10	–	≤ 10	–	CCCS(=O)(=O)Nc1ccc(F)c(C(=O)c2c[nH]c3nccc(Cl)c23)c1F [P-2208, Propane-1-sulfonic acid [3-(4-chloro-1H-pyrrolo[2,3-b]pyridine-3-carbonyl)-2,4-difluoro-phenyl]-amide]
≤ 10	≤ 10	≤ 10	≤ 10	–	≤ 10	–	O=C(c1c(F)ccc(NS(=O)(=O)C2CCC2)c1F)c1c[nH]c2nccc(Cl)c12 [P-2363, Cyclobutanesulfonic acid [3-(4-chloro-1H-pyrrolo[2,3-b]pyridine-3-carbonyl)-2,4-difluoro-phenyl]-amide]
≤ 10	≤ 10	≤ 10	≤ 10	≤ 10	–	–	N#Cc1cnc2[nH]cc(C(=O)c3cccc(NS(=O)(=O)c4ccc(C(F)(F)F)cc4)c3F)c2c1 [P-2057, N-[3-(5-Cyano-1H-pyrrolo[2,3-b]pyridine-3-carbonyl)-2-fluoro-phenyl]-4-trifluoromethyl-benzenesulfonamide]
≤ 10	≤ 10	≤ 10	≤ 10	≤ 10	–	–	N#Cc1ccnc2[nH]cc(C(=O)c3c(F)ccc(NS(=O)(=O)c4ccccn4)c3F)c12 [P-2078, Pyridine-2-sulfonic acid [3-(4-cyano-1H-pyrrolo[2,3-b]pyridine-3-carbonyl)-2,4-difluoro-phenyl]-amide]
≤ 10	≤ 10	≤ 10	≤ 10	≤ 10	–	–	COc1ccnc2[nH]cc(C(=O)c3c(F)ccc(NS(=O)(=O)N4CCOCC4)c3F)c12 [P-2396, Morpholine-4-sulfonic acid [2,4-difluoro-3-(4-methoxy-1H-pyrrolo[2,3-b]pyridine-3-carbonyl)-phenyl]-amide]
≤ 10	≤ 10	≤ 10	≤ 10	–	≤ 10	–	CCCS(=O)(=O)Nc1ccc(F)c(C(=O)c2c[nH]c3ncc(CCC(=O)N(CC)CC)cc23)c1F [P-2255, 3-{3-[2,6-Difluoro-3-(propane-1-sulfonylamino)-benzoyl]-1H-pyrrolo[2,3-b]pyridin-5-yl}-N,N-diethyl-propionamide]
≤ 10	≤ 10	≤ 10	≤ 10	–	≤ 10	–	CC(C)CS(=O)(=O)Nc1ccc(F)c(C(=O)c2c[nH]c3nccc(C#N)c23)c1F [P-2320, 2-Methyl-propane-1-sulfonic acid [3-(4-cyano-1H-pyrrolo[2,3-b]pyridine-3-carbonyl)-2,4-difluoro-phenyl]-amide]
≤ 10	≤ 10	≤ 10	≤ 10	–	–	≤ 10	CCC(C)S(=O)(=O)Nc1ccc(F)c(C(=O)c2c[nH]c3ncc(C#N)cc23)c1F (centres unmarked) [P-2317, Butane-2-sulfonic acid [3-(5-cyano-1H-pyrrolo[2,3-b]pyridine-3-carbonyl)-2,4-difluoro-phenyl]-amide]
≤ 10	≤ 10	≤ 10	≤ 10	≤ 10	–	–	N#Cc1ccnc2[nH]cc(C(=O)c3c(F)ccc(NS(=O)(=O)CCC(F)(F)F)c3F)c12 [P-2332, 3,3,3-Trifluoro-propane-1-sulfonic acid [3-(4-cyano-1H-pyrrolo[2,3-b]pyridine-3-carbonyl)-2,4-difluoro-phenyl]-amide]
≤ 10	≤ 10	≤ 10	≤ 10	–	≤ 10	–	CCCS(=O)(=O)Nc1ccc(F)c(C(=O)c2c[nH]c3ncc(CCC(=O)NOC)cc23)c1F [P-2243, 3-{3-[2,6-Difluoro-3-(propane-1-sulfonylamino)-benzoyl]-1H-pyrrolo[2,3-b]pyridin-5-yl}-N-methoxy-propionamide]
≤ 10	≤ 10	≤ 10	≤ 10	–	–	–	CCS(=O)(=O)Nc1ccc(F)c(C(=O)c2c[nH]c3nccc(C#N)c23)c1F [P-2283, Ethanesulfonic acid [3-(4-cyano-1H-pyrrolo[2,3-b]pyridine-3-carbonyl)-2,4-difluoro-phenyl]-amide]
≤ 10	≤ 10	≤ 10	≤ 10	–	–	–	CC(C)S(=O)(=O)Nc1ccc(F)c(C(=O)c2c[nH]c3nccc(C#N)c23)c1F [P-2285, Propane-2-sulfonic acid [3-(4-cyano-1H-pyrrolo[2,3-b]pyridine-3-carbonyl)-2,4-difluoro-phenyl]-amide]
–	≤ 10	≤ 10	≤ 10	≤ 10	–	–	CC(C)S(=O)(=O)Nc1ccc(F)c(C(=O)c2c[nH]c3nccc(Cl)c23)c1F [P-2284, Propane-2-sulfonic acid [3-(4-chloro-1H-pyrrolo[2,3-b]pyridine-3-carbonyl)-2,4-difluoro-phenyl]-amide]
–	≤ 10	≤ 10	–	≤ 10	–	–	CCCC(C)S(=O)(=O)Nc1ccc(F)c(C(=O)c2c[nH]c3nccc(OC)c23)c1F (centres unmarked) [P-2316, Pentane-2-sulfonic acid [2,4-difluoro-3-(4-methoxy-1H-pyrrolo[2,3-b]pyridine-3-carbonyl)-phenyl]-amide]
≤ 10	≤ 10	≤ 10	≤ 10	–	–	≤ 10	N#Cc1ccnc2[nH]cc(C(=O)c3c(F)ccc(NS(=O)(=O)c4ccc(F)cc4)c3F)c12 [P-2035, N-[3-(4-Cyano-1H-pyrrolo[2,3-b]pyridine-3-carbonyl)-2,4-difluoro-phenyl]-4-fluoro-benzenesulfonamide]
–	≤ 10	≤ 10	≤ 10	–	–	≤ 10	CCCC(C)S(=O)(=O)Nc1ccc(F)c(C(=O)c2c[nH]c3ncc(C#N)cc23)c1F (centres unmarked) [P-2314, Pentane-2-sulfonic acid [3-(5-cyano-1H-pyrrolo[2,3-b]pyridine-3-carbonyl)-2,4-difluoro-phenyl]-amide]
